Data: patent publication US9724355B2, “Fulvestrant compositions and methods of use” (SHIMODA BIOTECH (PTY) LTD, priority 2010, dated 2017)

Assay: Fulvestrant aqueous solubility in the presence and absence of cyclodextrins (excess drug, shaken 24 h, filtered, HPLC)
Type: physicochemical
Settings: for True Fulvestrant Concentration: 22° C., 24 h; for Average Concentration / Quantity of Fulvestrant Diluted Run 1 / Quantity of Fulvestrant Diluted Run 2: diluted sample
Procedure: The HPLC system used for the chromatographic determination of fulvestrant consisted of a Waters 600E quaternary gradient pump, a Waters 717plus WISP auto-sampler and a Waters 2487 Dual A, Absorbance detector. Separation was performed using a Phenomenex Luna C18 column (250×4.6 mm; 5 urn) (Phenomenex, Torrance, Calif.) (supplied by Separations, South Africa) and a mobile phase consisting of 50% MeCN:22.5% ddH2O :27.5% MeOH. The mobile phase was degassed and filtered prior to use. […] Sample run times were 15 minutes. The UV detector wavelength was set to 280 nm.
(§1) 1 mL of each of the following aqueous solutions was prepared containing 0; 25; 50; 75 and 100 mg/mL ACD in ddHiO. Excess fulvestrant was added to each of these solutions and the samples were shaken for 24 hours on an orbital shaker at 200 rpm and at 22° C. room temperature. Excess fulvestrant was present in all samples at all times. After 24-hours, the samples were filtered through 0.45 μm syringe tip filters, diluted according to requirements and assayed by HPLC.
as §1, with “5; 7.5; 10” for “25; 50; 75”, “15” for “100”, “BCD” for “ACD”, “ddH2O.” for “ddHiO.”
as §1, with “0;” for “0; 25;”, “100; 150; 200; 250; 300; 350” for “75”, “400” for “100”, “MBCD” for “ACD”, “ddH2O.” for “ddHiO.”
as §1, with “0;” for “0; 25;”, “100; 150; 200; 250; 300; 350” for “75”, “400” for “100”, “HPBCD” for “ACD”, “ddH2O.” for “ddHiO.”
as §1, with “0;” for “0; 25;”, “100; 150; 200; 250; 300; 350” for “75”, “400” for “100”, “SBEBCD” for “ACD”, “ddH2O.” for “ddHiO.”
as §1, with “0;” for “0; 25;”, “100; 150;” for “75”, “200” for “100”, “GCD” for “ACD”, “ddHO.” for “ddHiO.”
as §1, with “0;” for “0; 25;”, “100; 150; 200; 250; 300; 350” for “75”, “400” for “100”, “HPGCD” for “ACD”, “ddH2O.” for “ddHiO.”

True Fulvestrant Concentration (0 mg/mL ACD in ddH2O): <0.010 mg/mL | Average Concentration (0 mg/mL ACD): <10.00 µg/mL | Quantity of Fulvestrant Diluted Run 1 (0 mg/mL ACD): <10.000 µg/mL | Quantity of Fulvestrant Diluted Run 2 (0 mg/mL ACD): <10.010 µg/mL | True Fulvestrant Concentration (0 mg/mL BCD in ddH2O): <0.010 mg/mL | Average Concentration (0 mg/mL BCD): <10.00 µg/mL | Quantity of Fulvestrant Diluted Run 1 (0 mg/mL BCD): <10.000 µg/mL | Quantity of Fulvestrant Diluted Run 2 (0 mg/mL BCD): <10.000 µg/mL | True Fulvestrant Concentration (0 mg/mL GCD in ddH2O): <0.010 mg/mL | Average Concentration (0 mg/mL GCD): <10.00 µg/mL | Quantity of Fulvestrant Diluted Run 1 (0 mg/mL GCD): <10.000 µg/mL | Quantity of Fulvestrant Diluted Run 2 (0 mg/mL GCD): <10.000 µg/mL | True Fulvestrant Concentration (0 mg/mL HPBCD in ddH2O): <0.010 mg/mL | Average Concentration (0 mg/mL HPBCD): <10.00 µg/mL | Quantity of Fulvestrant Diluted Run 1 (0 mg/mL HPBCD): <10.00 µg/mL | Quantity of Fulvestrant Diluted Run 2 (0 mg/mL HPBCD): <10.00 µg/mL | True Fulvestrant Concentration (0 mg/mL HPGCD in ddH2O): <0.010 mg/mL | Average Concentration (0 mg/mL HPGCD): <10.00 µg/mL | Quantity of Fulvestrant Diluted Run 1 (0 mg/mL HPGCD): <10.00 µg/mL | Quantity of Fulvestrant Diluted Run 2 (0 mg/mL HPGCD): <10.00 µg/mL | True Fulvestrant Concentration (0 mg/mL MBCD in ddH2O): <0.010 mg/mL | Average Concentration (0 mg/mL MBCD): <10.00 µg/mL | Quantity of Fulvestrant Diluted Run 1 (0 mg/mL MBCD): <10.00 µg/mL | Quantity of Fulvestrant Diluted Run 2 (0 mg/mL MBCD): <10.00 µg/mL | Average Concentration (0 mg/mL SBEBCD): <10.00 µg/mL | Quantity of Fulvestrant Diluted Run 1 (0 mg/mL SBEBCD): <10.00 µg/mL | Quantity of Fulvestrant Diluted Run 2 (0 mg/mL SBEBCD): <10.00 µg/mL | True Fulvestrant Concentration (5 mg/mL BCD in ddH2O): <0.010 mg/mL | Average Concentration (5 mg/mL BCD): <10.00 µg/mL | Quantity of Fulvestrant Diluted Run 1 (5 mg/mL BCD): <10.000 µg/mL | Quantity of Fulvestrant Diluted Run 2 (5 mg/mL BCD): <10.000 µg/mL | True Fulvestrant Concentration (10 mg/mL BCD in ddH2O): <0.010 mg/mL | Average Concentration (10 mg/mL BCD): <10.00 µg/mL | Quantity of Fulvestrant Diluted Run 1 (10 mg/mL BCD): <10.000 µg/mL | Quantity of Fulvestrant Diluted Run 2 (10 mg/mL BCD): <10.000 µg/mL | True Fulvestrant Concentration (15 mg/mL BCD in ddH2O): 0.013 mg/mL | Average Concentration (15 mg/mL BCD): 13.00 µg/mL | Quantity of Fulvestrant Diluted Run 1 (15 mg/mL BCD): 13.060 µg/mL | Quantity of Fulvestrant Diluted Run 2 (15 mg/mL BCD): 12.940 µg/mL | True Fulvestrant Concentration (25 mg/mL ACD in ddH2O): 0.033 mg/mL | Average Concentration (25 mg/mL ACD): 33.30 µg/mL | Quantity of Fulvestrant Diluted Run 1 (25 mg/mL ACD): 33.620 µg/mL | Quantity of Fulvestrant Diluted Run 2 (25 mg/mL ACD): 32.970 µg/mL | True Fulvestrant Concentration (50 mg/mL ACD in ddH2O): 0.111 mg/mL | Average Concentration (50 mg/mL ACD): 110.74 µg/mL | Quantity of Fulvestrant Diluted Run 1 (50 mg/mL ACD): 110.600 µg/mL | Quantity of Fulvestrant Diluted Run 2 (50 mg/mL ACD): 110.880 µg/mL | True Fulvestrant Concentration (50 mg/mL GCD in ddH2O): 0.011 mg/mL | Average Concentration (50 mg/mL GCD): 10.62 µg/mL | Quantity of Fulvestrant Diluted Run 1 (50 mg/mL GCD): 10.700 µg/mL | Quantity of Fulvestrant Diluted Run 2 (50 mg/mL GCD): 10.530 µg/mL | True Fulvestrant Concentration (50 mg/mL HPBCD in ddH2O): 0.210 mg/mL | Average Concentration (50 mg/mL HPBCD): 20.95 µg/mL | Quantity of Fulvestrant Diluted Run 1 (50 mg/mL HPBCD): 21.09 µg/mL | Quantity of Fulvestrant Diluted Run 2 (50 mg/mL HPBCD): 20.81 µg/mL | True Fulvestrant Concentration (50 mg/mL HPGCD in ddH2O): 0.037 mg/mL | Average Concentration (50 mg/mL HPGCD): 38.32 µg/mL | Quantity of Fulvestrant Diluted Run 1 (50 mg/mL HPGCD): 38.66 µg/mL | Quantity of Fulvestrant Diluted Run 2 (50 mg/mL HPGCD): 37.97 µg/mL | True Fulvestrant Concentration (50 mg/mL MBCD in ddH2O): 0.750 mg/mL | Average Concentration (50 mg/mL MBCD): 74.99 µg/mL | Quantity of Fulvestrant Diluted Run 1 (50 mg/mL MBCD): 74.61 µg/mL | Quantity of Fulvestrant Diluted Run 2 (50 mg/mL MBCD): 75.37 µg/mL | True Fulvestrant Concentration (50 mg/mL SBEBCD in ddH2O): 0.077 mg/mL | Average Concentration (50 mg/mL SBEBCD): 77.30 µg/mL | Quantity of Fulvestrant Diluted Run 1 (50 mg/mL SBEBCD): 76.98 µg/mL | Quantity of Fulvestrant Diluted Run 2 (50 mg/mL SBEBCD): 77.61 µg/mL | True Fulvestrant Concentration (75 mg/mL ACD in ddH2O): 0.310 mg/mL | Average Concentration (75 mg/mL ACD): 310.32 µg/mL | Quantity of Fulvestrant Diluted Run 1 (75 mg/mL ACD): 310.460 µg/mL | Quantity of Fulvestrant Diluted Run 2 (75 mg/mL ACD): 310.170 µg/mL | True Fulvestrant Concentration (100 mg/mL ACD in ddH2O): 1.683 mg/mL | Average Concentration (100 mg/mL ACD): 168.26 µg/mL | Quantity of Fulvestrant Diluted Run 1 (100 mg/mL ACD): 162.660 µg/mL | Quantity of Fulvestrant Diluted Run 2 (100 mg/mL ACD): 173.850 µg/mL | True Fulvestrant Concentration (100 mg/mL GCD in ddH2O): <0.010 mg/mL | Average Concentration (100 mg/mL GCD): <10.00 µg/mL | Quantity of Fulvestrant Diluted Run 1 (100 mg/mL GCD): <10.000 µg/mL | Quantity of Fulvestrant Diluted Run 2 (100 mg/mL GCD): <10.000 µg/mL | True Fulvestrant Concentration (100 mg/mL HPBCD in ddH2O): 0.483 mg/mL | Average Concentration (100 mg/mL HPBCD): 48.30 µg/mL | Quantity of Fulvestrant Diluted Run 1 (100 mg/mL HPBCD): 48.32 µg/mL | Quantity of Fulvestrant Diluted Run 2 (100 mg/mL HPBCD): 48.27 µg/mL | True Fulvestrant Concentration (100 mg/mL HPGCD in ddH2O): 0.107 mg/mL | Average Concentration (100 mg/mL HPGCD): 116.27 µg/mL | Quantity of Fulvestrant Diluted Run 1 (100 mg/mL HPGCD): 116.80 µg/mL | Quantity of Fulvestrant Diluted Run 2 (100 mg/mL HPGCD): 115.74 µg/mL | True Fulvestrant Concentration (100 mg/mL MBCD in ddH2O): 3.021 mg/mL | Average Concentration (100 mg/mL MBCD): 302.06 µg/mL | Quantity of Fulvestrant Diluted Run 1 (100 mg/mL MBCD): 302.12 µg/mL | Quantity of Fulvestrant Diluted Run 2 (100 mg/mL MBCD): 301.99 µg/mL | True Fulvestrant Concentration (100 mg/mL SBEBCD in ddH2O): 0.167 mg/mL | Average Concentration (100 mg/mL SBEBCD): 167.10 µg/mL | Quantity of Fulvestrant Diluted Run 1 (100 mg/mL SBEBCD): 167.7 µg/mL | Quantity of Fulvestrant Diluted Run 2 (100 mg/mL SBEBCD): 166.49 µg/mL | True Fulvestrant Concentration (150 mg/mL GCD in ddH2O): <0.010 mg/mL | Average Concentration (150 mg/mL GCD): <10.00 µg/mL | Quantity of Fulvestrant Diluted Run 1 (150 mg/mL GCD): <10.000 µg/mL | Quantity of Fulvestrant Diluted Run 2 (150 mg/mL GCD): <10.000 µg/mL | True Fulvestrant Concentration (150 mg/mL HPBCD in ddH2O): 0.937 mg/mL | Average Concentration (150 mg/mL HPBCD): 93.66 µg/mL | Quantity of Fulvestrant Diluted Run 1 (150 mg/mL HPBCD): 93.82 µg/mL
Structure (SMILES): C[C@]12CC[C@@H]3c4ccc(O)cc4C[C@@H](CCCCCCCCC[S+]([O-])CCCC(F)(F)C(F)(F)F)[C@H]3[C@@H]1CC[C@@H]2O (stereo partly drawn) [Fulvestrant, 7-alpha-[9-(4,4,5,5,5-pentafluoropentylsulphinyl)nonyl]estra-1,3,5-(10)-triene-3,17-beta-diol]
